The results in this text go back to ChEMBL document CHEMBL1142687, “New approaches toward anti-HIV chemotherapy” (J Med Chem, 2005).

Values after ≈ are worked out from the molar mass of the structure shown.

The subject of series [1] is Human immunodeficiency virus 1. Description: (§1) Effective concentration to inhibit the replication of HIV-1 R5 strain. The format is functional, organism-based.
Series [2] is described as follows: Oral bioavailability in monkeys. The format is ADME, organism-based. The conditions noted are these: cercopithecidae, in vivo, read-out: Bioavailabiility.
The nature of series [3]: Oral bioavailability in fasted rats. The format is ADME, organism-based. Particulars: rat, in vivo, read-out: Bioavailabiility.
Series [4] relates to Human immunodeficiency virus 1. Described as §1. It is filed as functional.
The subject of series [5] is Human immunodeficiency virus 1. Description: Fold reduction in plasma HIV RNAafter intravenous administration of 100 mg twice daily (1.5-2.0). It is filed as functional.
The subject of series [6] is Human immunodeficiency virus 1. Description: Effective concentration against human immunodeficiency virus type 1 strains; (0.3-0.5 nM). The format is functional, organism-based.
Series [7] deals with Human immunodeficiency virus 1. Description: Selectivity index against human immunodeficiency virus type 1. The format is functional.
The test system of series [8] is Human immunodeficiency virus 1. Description: Effective concentration of the compound against human immunodeficiency virus type 1. It is filed as functional, organism-based.
Series [9] relates to Cell line. The series can be described thus: Reduction of viral load after administration at 25 mg, twice daily for 10 days with antiretrovirals; expressed as log10 reduction; (0.5-1 ). The format is functional, Homo sapiens.
The test system of series [10] is Human immunodeficiency virus 1. The series can be described thus: Effective concentration of the compound to inhibit the replication of human immunodeficiency virus type 1. The format is functional, organism-based.
For series [11], the target named is C-C chemokine receptor type 5 (Homo sapiens) (UniProt P51681).
C-C chemokine receptor type 5 (Homo sapiens), sequence (P51681 whole entry, looked up): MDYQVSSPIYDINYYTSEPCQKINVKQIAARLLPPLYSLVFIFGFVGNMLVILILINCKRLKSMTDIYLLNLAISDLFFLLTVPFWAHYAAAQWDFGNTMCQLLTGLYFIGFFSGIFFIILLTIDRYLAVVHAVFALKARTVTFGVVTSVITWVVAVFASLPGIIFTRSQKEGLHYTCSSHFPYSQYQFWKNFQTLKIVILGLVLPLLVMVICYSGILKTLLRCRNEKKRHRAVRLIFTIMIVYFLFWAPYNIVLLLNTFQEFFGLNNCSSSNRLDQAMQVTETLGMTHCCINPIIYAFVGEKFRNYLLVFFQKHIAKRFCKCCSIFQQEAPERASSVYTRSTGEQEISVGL
Description: Inhibitory concentration against human immunodeficiency virus isolates utilizing C-C chemokine receptor type 5 for cell entry
For series [12], the system named is Cell line. Description: Mean decrease in viral load in humans after administration of 25 mg once a day; expressed as log 10 reduction. It is filed as functional, Homo sapiens.
For series [13], the system named is Cell line. Description: Mean decrease in viral load in humans after administration of 100 mg twice a day; expressed as log10 reduction. The format is functional, Homo sapiens.
The test system of series [14] is Human immunodeficiency virus 1. The series can be described thus: Effective concentration of the compound to inhibit human immunodeficiency virus type 1 replication. It is filed as functional, organism-based.
In series [15] the test system is Human immunodeficiency virus 1. The series can be described thus: Cytotoxic concentration of the compound to inhibit HIV 1 replication. The format is functional.
Series [16] relates to Cell line. Description: Reduction of viral load after oral administration at 100 mg for 8 weeks; expressed as log10 reduction. The format is functional, Homo sapiens.
Series [17] in a line: Inhibitory concentration to inhibit cell to cell fusion based on C14 linkmid (a short constrained peptide). The format is functional.
Series [18] has as its system Human immunodeficiency virus 1. The series can be described thus: Inhibitory concentration to inhibit HIV-1 mediated cell to cell fusion. It is filed as functional, organism-based.

In the case of `CC(=O)N1CCC(C(=O)N(CCCN2CCC(Cc3ccc(C(N)=O)cc3)CC2)c2ccc(C)c(Cl)c2)CC1`, the EC50 in series [1] worked out at 1.1 nM. For the same compound, the bioavailability came out at 28.5% in series [2] and 9.5% in series [3]. This compound also registered an EC90 in series [4] of 13 nM. For the compound enfuvirtide, the Reduction in [5] was 2.

As for `COc1ccc(S(=O)(=O)N(CC(C)C)C[C@@H](O)[C@H](Cc2ccccc2)NC(=O)O[C@H]2CO[C@H]3OCC[C@H]32)cc1`, in series [6], it took 0.5 nM to reach a half-maximal effect (EC50). For `Cc1ccc(C)c(CSc2c(Cl)ccc[n+]2[O-])c1`, the SI in series [7] is given as around 760. The same compound showed a concentration for a half-maximal effect (EC50) in series [8] of 0.05 µg/mL (≈ 0.179 µM).

Take `COC[C@@H](c1ccc(C(F)(F)F)cc1)N1CCN(C2(C)CCN(C(=O)c3c(C)ncnc3C)CC2)C[C@@H]1C` [VICRIVIROC]: in [9], the Reduction is 1. Compound `O=[N+]([O-])c1ccc(C2c3c(O)nc(S)nc3Oc3nc(S)nc(O)c32)cc1` gave an EC50 in series [10] of 8900 nM. In other words, the single-digit micromolar range.

On to `Cc1nnc(C(C)C)n1[C@H]1CC2CC[C@@H](C1)N2CC[C@H](NC(=O)C1CCC(F)(F)CC1)c1ccccc1` (single isomer, unassigned) [MARAVIROC], for which, in series [11], the IC90 is below 10 nM. The Activity in series [12] is 0.42; in series [13], 1.42. Regarding `O=C(/C=C(\O)c1ccc(Cc2ccc(F)cc2)o1)c1nc[nH]n1`, the response in series [14] was half-maximal at 140 nM (EC50). Besides, half-maximal cytotoxicity in [15] (CC50) was put at 110000 nM.

In series [16], `O=C1Nc2ccc(Cl)cc2[C@@](/C=C/C2CC2)(C(F)(F)F)N1` registered a Reduction of 1.28. Consider `CC(C)Cc1cc(-c2ccc(-c3ccc(CCC(=O)O)cc3CC(C)C)cc2C(C)C)ccc1OCC(=O)O`, for which the IC50 in series [17] was 35000 nM; in series [18] it was around 15 µg/mL (≈ 28.3 µM).

In general, EC50 refers to the concentration that produces a half-maximal response. Lower therefore signals higher potency in that assay. Broadly, the EC90 is the concentration at which the effect reaches the 90% level. Low readings indicate an effect from little substance, high ones a need for much substance. For orientation: IC90 means the concentration needed for an effect of 90%. The CC50 is the concentration giving 50% cytotoxicity. Usually IC50 stands for the concentration that gives 50% inhibition.
